The values below come from US20090311217A1, “3-SUBSTITUTED-1H-INDOLE COMPOUNDS, THEIR USE AS MTOR KINASE AND PI3 KINASE INHIBITORS, AND THEIR SYNTHESES” (priority 2008, published 2009).

Common to all, as to format: biochemical
The target in assay [1] is PI3K-alpha (Homo sapiens, UniProt P42336). The experiment in a line: PI3K-alpha fluorescence polarization assay.
Assay [2] addresses T1, human TOR (Homo sapiens, UniProt P42345).
T1 construct: FLAG
The assay can be described thus: mTOR enzyme assay (DELFIA, His6-S6K substrate). Particulars: read-out: mTOR Kinase Avg. IC50.

The target in assay [3] is PI3K-gamma (Homo sapiens, UniProt P48736). The assay can be described thus: PI3K-gamma fluorescence polarization assay. Summed up: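 Inhibition is derived from a polarization signal: after a 1 h, 25° C kinase step (25 μM ATP, 2.5 μM diC8-PIP2, pH 7), EDTA stops the reaction and the GRP1 PH domain/TMR-IP4 pair reports lipid product.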
(In general: Fluorescence polarisation rises when a labelled molecule tumbles more slowly, as on binding a larger partner.)

Like-named read-outs stand apart in the source and are kept apart here. A value given as a limit tells only on which side of the number the result lay.

Chain of PI3K-alpha (P42336 whole entry, species assumed): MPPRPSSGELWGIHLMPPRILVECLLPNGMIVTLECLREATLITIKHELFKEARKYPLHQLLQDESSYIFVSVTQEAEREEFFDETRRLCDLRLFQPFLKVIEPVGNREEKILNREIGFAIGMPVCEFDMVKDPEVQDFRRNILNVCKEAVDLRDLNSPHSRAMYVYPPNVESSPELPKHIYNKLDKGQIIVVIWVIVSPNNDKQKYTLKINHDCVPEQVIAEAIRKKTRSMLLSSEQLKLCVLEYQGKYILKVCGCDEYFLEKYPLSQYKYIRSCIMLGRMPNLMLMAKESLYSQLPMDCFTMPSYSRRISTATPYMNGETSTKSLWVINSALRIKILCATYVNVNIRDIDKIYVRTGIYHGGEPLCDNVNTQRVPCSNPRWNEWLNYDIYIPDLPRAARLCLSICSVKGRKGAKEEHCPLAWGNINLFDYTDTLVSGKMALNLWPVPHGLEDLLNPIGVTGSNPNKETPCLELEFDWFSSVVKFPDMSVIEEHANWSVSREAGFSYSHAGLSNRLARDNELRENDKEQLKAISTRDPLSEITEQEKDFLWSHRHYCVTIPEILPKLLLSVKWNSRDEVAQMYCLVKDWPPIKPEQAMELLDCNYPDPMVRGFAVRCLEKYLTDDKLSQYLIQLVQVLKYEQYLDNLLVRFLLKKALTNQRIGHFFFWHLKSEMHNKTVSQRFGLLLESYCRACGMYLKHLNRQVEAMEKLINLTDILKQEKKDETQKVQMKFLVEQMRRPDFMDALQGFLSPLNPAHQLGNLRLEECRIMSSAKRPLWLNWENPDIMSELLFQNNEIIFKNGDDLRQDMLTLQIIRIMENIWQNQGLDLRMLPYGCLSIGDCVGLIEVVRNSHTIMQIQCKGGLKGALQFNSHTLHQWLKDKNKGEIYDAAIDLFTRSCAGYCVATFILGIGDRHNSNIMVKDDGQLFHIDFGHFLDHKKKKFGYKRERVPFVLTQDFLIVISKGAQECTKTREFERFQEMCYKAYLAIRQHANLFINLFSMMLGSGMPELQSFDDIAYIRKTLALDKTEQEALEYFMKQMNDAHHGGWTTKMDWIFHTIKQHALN
Chain of PI3K-alpha (P27986 whole entry partner, species assumed): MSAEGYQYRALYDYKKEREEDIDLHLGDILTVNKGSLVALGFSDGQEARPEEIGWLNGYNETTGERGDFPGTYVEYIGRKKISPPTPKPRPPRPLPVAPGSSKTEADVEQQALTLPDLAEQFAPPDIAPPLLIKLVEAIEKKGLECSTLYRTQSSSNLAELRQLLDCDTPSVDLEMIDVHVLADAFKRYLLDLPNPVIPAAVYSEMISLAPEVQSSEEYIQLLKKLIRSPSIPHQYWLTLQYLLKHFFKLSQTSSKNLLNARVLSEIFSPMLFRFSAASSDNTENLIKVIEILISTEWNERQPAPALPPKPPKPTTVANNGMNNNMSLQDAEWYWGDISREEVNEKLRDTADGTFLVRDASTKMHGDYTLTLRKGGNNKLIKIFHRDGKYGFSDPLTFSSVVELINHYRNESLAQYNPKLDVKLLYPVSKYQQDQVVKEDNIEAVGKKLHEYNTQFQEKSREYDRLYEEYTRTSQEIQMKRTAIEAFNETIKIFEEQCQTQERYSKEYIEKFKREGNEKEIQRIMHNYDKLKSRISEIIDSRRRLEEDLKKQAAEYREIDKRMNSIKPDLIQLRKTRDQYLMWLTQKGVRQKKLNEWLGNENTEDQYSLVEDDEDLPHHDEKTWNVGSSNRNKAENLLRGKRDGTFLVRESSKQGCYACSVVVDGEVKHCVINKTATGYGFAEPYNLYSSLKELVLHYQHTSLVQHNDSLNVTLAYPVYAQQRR
Chain of PI3K-gamma (P48736 whole entry, species assumed, the tested form may be a part): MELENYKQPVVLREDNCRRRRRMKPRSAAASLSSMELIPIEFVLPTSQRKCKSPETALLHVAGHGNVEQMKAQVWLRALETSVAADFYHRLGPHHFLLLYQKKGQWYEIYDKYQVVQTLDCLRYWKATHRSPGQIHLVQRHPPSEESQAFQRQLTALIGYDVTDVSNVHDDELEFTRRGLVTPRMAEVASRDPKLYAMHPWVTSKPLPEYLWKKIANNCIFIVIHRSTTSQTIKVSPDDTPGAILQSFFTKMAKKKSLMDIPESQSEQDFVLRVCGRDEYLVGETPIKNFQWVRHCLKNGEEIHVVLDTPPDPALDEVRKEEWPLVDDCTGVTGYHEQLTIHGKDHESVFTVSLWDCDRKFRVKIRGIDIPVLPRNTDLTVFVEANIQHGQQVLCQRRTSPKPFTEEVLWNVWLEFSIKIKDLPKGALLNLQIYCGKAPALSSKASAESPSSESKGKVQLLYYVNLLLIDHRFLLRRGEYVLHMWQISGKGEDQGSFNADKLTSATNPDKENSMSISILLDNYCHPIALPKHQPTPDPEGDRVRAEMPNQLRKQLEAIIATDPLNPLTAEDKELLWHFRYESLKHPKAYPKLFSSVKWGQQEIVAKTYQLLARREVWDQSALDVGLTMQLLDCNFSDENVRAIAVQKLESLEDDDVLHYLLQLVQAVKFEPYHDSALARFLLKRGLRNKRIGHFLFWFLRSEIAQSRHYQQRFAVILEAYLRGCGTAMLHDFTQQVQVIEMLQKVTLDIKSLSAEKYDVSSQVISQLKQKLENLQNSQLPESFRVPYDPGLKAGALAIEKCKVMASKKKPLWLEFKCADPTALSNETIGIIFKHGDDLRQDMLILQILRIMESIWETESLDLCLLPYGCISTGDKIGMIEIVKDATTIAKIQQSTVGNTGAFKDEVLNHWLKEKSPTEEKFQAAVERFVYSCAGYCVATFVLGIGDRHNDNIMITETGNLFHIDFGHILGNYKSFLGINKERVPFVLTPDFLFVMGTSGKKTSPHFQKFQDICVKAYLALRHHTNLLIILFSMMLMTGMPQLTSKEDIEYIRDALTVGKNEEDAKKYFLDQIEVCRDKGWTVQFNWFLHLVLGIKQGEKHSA

Regarding `O=C1C(=Cc2c[nH]c3cccc(OCc4ccccc4)c23)Oc2cc(O)cc(O)c21` [Example 243, 2-{[4-(benzyloxy)-1H-indol-3-yl]methylene}-4,6-dihydroxy-1-benzofuran-3(2H)-one], the half-inhibitory concentration (IC50) in assay [1] (read-out: PI3Kα Avg. IC50) is 1050 nM; in assay [2], 480 nM.

For `COc1ccc2c(c1)c(/C=C1\Oc3c(ccc(O)c3C)C1=O)c(C)n2CCCN(C)C` [Example 450, (2Z)-2-({1-[3-(Dimethylamino)propyl]-5-methoxy-2-methyl-1H-indol-3-yl}methylene)-6-hydroxy-7-methyl-1-benzofuran-3(2H)-one], the figures for the IC50 in assay [1] (read-out: PI3Kα Avg. IC50) and in assay [2] were 662 nM and more than 20000 nM, respectively.

As to `COc1ccc2[nH]cc(C=C3Oc4cc(O)cc(O)c4C3=O)c2c1C` [Example 219, 4,6-dihydroxy-2-[(5-methoxy-4-methyl-1H-indol-3-yl)methylene]-1-benzofuran-3(2H)-one], the IC50 was 1000 nM in assay [1] (read-out: PI3Kα Avg. IC50) and more than 20000 nM in assay [2].

Turning to `O=C1/C(=C/c2c(-c3ccc(F)cc3)[nH]c3ccccc23)Oc2cc(O)cc(O)c21` [Example 46, (2Z)-2-{[2-(4-fluorophenyl)-1H-indol-3-yl]methylene}-4,6-dihydroxy-1-benzofuran-3(2H)-one], the half-inhibitory concentration (IC50) is 1580 nM in assay [1] (PI3Kα Avg. IC50) and 123 nM in assay [2].

With `Cc1c(C=C2Oc3cc(O)cc(O)c3C2=O)c2ccccc2n1CCCC#N` [Example 240, 4-{3-[(4,6-dihydroxy-3-oxo-1-benzofuran-2(3H)-ylidene)methyl]-2-methyl-1H-indol-1-yl}butanenitrile], the IC50 in assay [1] (read-out: PI3Kα Avg. IC50) came to 3330 nM; in assay [2], 2700 nM.

In the case of `Cn1c(-c2ccc(OCc3ccccc3)cc2)c(C=C2Oc3cc(O)cc(O)c3C2=O)c2ccccc21` [Example 260, 2-({2-[4-(benzyloxy)phenyl]-1-methyl-1H-indol-3-yl}methylene)-4,6-dihydroxy-1-benzofuran-3(2H)-one], the 50% inhibitory concentration (IC50) in assay [1] (read-out: PI3Kα Avg. IC50) turned out to be 1670 nM; in assay [2], 4500 nM.

Consider `N#Cc1cccc2[nH]cc(C=C3Oc4cc(O)cc(O)c4C3=O)c12` [Example 220, 3-[(4,6-dihydroxy-3-oxo-1-benzofuran-2(3H)-ylidene)methyl]-1H-indole-4-carbonitrile], for which the concentration for half-maximal inhibition (IC50) came to 1980 nM in assay [1] (read-out: PI3Kα Avg. IC50) and 4300 nM in assay [2].

`Cn1cc(C=C2Oc3ccccc3C2=O)c2ccccc21` [Example 4, 2-[(1-methyl-1H-indol-3-yl)methylene]-1-benzofuran-3(2H)-one]: the 50% inhibitory concentration (IC50) was 12300 nM in assay [1] (read-out: PI3Kα Avg. IC50) and more than 20000 nM in assay [2].

Regarding `CCc1cccc2c(C=C3Oc4cc(O)cc(O)c4C3=O)c[nH]c12` [Example 187, 2-[(7-ethyl-1H-indol-3-yl)methylene]-4,6-dihydroxy-1-benzofuran-3(2H)-one], the IC50 in assay [1] (read-out: PI3Kα Avg. IC50) is 5000 nM; in assay [2], more than 20000 nM.

For `O=C1/C(=C/c2c[nH]c3ccc(OCc4ccccc4)cc23)Oc2cc(O)ccc21` [Example 34, (2Z)-2-{[5-(benzyloxy)-1H-indol-3-yl]methylene}-6-hydroxy-1-benzofuran-3(2H)-one], the IC50 was more than 10000 nM in assay [1] (read-out: PI3Kα Avg. IC50) and more than 20000 nM in assay [2].

As for `COC(=O)c1cccc2c(C=C3Oc4cc(O)cc(O)c4C3=O)c[nH]c12` [Example 245, methyl 3-[(4,6-dihydroxy-3-oxo-1-benzofuran-2(3H)-ylidene)methyl]-1H-indole-7-carboxylate], the half-inhibitory concentration (IC50) in assay [1] (read-out: PI3Kα Avg. IC50) was 1490 nM; in assay [2] it was more than 20000 nM.

Regarding `Cc1[nH]c2ccc([N+](=O)[O-])cc2c1C=C1Oc2cc(O)cc(O)c2C1=O` [Example 162, 4,6-dihydroxy-2-[(2-methyl-5-nitro-1H-indol-3-yl)methylene]-1-benzofuran-3(2H)-one], the concentration for half-maximal inhibition (IC50) in assay [1] (read-out: PI3Kα Avg. IC50) was 2450 nM; in assay [2], more than 20000 nM.

Consider `COc1cccc(-c2[nH]c3ccccc3c2C=C2Oc3cc(O)cc(O)c3C2=O)c1` [Example 209, 4,6-dihydroxy-2-{[2-(3-methoxyphenyl)-1H-indol-3-yl]methylene}-1-benzofuran-3(2H)-one], for which the results for the IC50 in assay [1] (read-out: PI3Kα Avg. IC50) and in assay [2] were 1160 nM and 490 nM, respectively.

Take `CNC(=O)Nc1ccc2c(c1)C(=O)/C(=C/c1c(C)n(CCN3CCOCC3)c3ccc(OC)cc13)O2` [Compound 608, 1-[(2Z)-2-{[5-methoxy-2-methyl-1-(2-morpholin-4-ylethyl)-1H-indol-3-yl]methylidene}-3-oxo-2,3-dihydro-1-benzofuran-5-yl]-3-methylurea]: the half-inhibitory concentration (IC50) was found to be 15.5 nM in assay [1] (read-out: PI3Kα Avg. IC50) and 136 nM in assay [3] (PI3Kγ Avg. IC50).

For the molecule “4-hydroxy-2-{[5-methoxy-2-methyl-1-(2-morpholin-4-ylethyl)-1H-indol-3-yl]methylene}-1-benzofuran-3(2H)-one [Example 130]”, the values for the half-inhibitory concentration (IC50) in assay [1] (read-out: PI3Kα Avg. IC50) and in assay [3] (read-out: PI3Kγ Avg. IC50) were 650 nM and 4140 nM, respectively.

Take `CNC(=O)Nc1ccc2c(c1)C(=O)/C(=C/c1c(C(=O)N3CCN(C)CC3)[nH]c3ccc(OC)cc13)O2` [Compound 601, 1-[(2Z)-2-({5-methoxy-2-[(4-methylpiperazin-1-yl)carbonyl]-1H-indol-3-yl}methylidene)-3-oxo-2,3-dihydro-1-benzofuran-5-yl]-3-methylurea]: the 50% inhibitory concentration (IC50) was 8 nM in assay [1] (read-out: PI3Kα Avg. IC50) and 77 nM in assay [3] (PI3Kγ Avg. IC50).

Regarding `COc1ccc2c(c1)c(/C=C1\Oc3ccc(NC(=O)NC4CC4)cc3C1=O)cn2CCCN(C)C` [Compound 560, 1-cyclopropyl-3-[(2Z)-2-({1-[3-(dimethylamino)propyl]-5-methoxy-1H-indol-3-yl}methylene)-3-oxo-2,3-dihydro-1-benzofuran-5-yl]urea], the 50% inhibitory concentration (IC50) in assay [1] (read-out: PI3Kα Avg. IC50) stood at 132 nM; in assay [3] (PI3Kγ Avg. IC50) it was 1600 nM.

For `COc1ccc2c(c1)c(/C=C1\Oc3ccc(NC(C)=O)cc3C1=O)cn2CCCN(C)C` [Compound 525, N-[(2Z)-2-({1-[3-(dimethylamino)propyl]-5-methoxy-1H-indol-3-yl}methylene)-3-oxo-2,3-dihydro-1-benzofuran-5-yl]acetamide], the IC50 in assay [1] (read-out: PI3Kα Avg. IC50) was 1270 nM; in assay [3] (PI3Kγ Avg. IC50), more than 10000 nM.

As to `COc1ccc2[nH]cc(/C=C3\Oc4ccc(-c5nnn[nH]5)cc4C3=O)c2c1` [Compound 524, (2Z)-2-[(5-methoxy-1H-indol-3-yl)methylene]-5-(1H-tetrazol-5-yl)-1-benzofuran-3(2H)-one], the figures for the IC50 in assay [1] (read-out: PI3Kα Avg. IC50) and in assay [3] (PI3Kγ Avg. IC50) were 12000 nM and more than 10000 nM, respectively.

`COc1ccc2c(c1)c(/C=C1\Oc3ccc(NC(=O)NCCN)cc3C1=O)cn2CCN1CCN(C)CC1` [Compound 549, 1-(2-aminoethyl)-3-[(2Z)-2-({5-methoxy-1-[2-(4-methylpiperazin-1-yl)ethyl]-1Hindol-3-yl}methylene)-3-oxo-2,3-dihydro-1-benzofuran-5-yl]urea]: the IC50 was determined as 13.5 nM in assay [1] (read-out: PI3Kα Avg. IC50) and 2980 nM in assay [3] (PI3Kγ Avg. IC50).

Regarding `CNC(=O)Nc1ccc2c(c1)C(=O)/C(=C/c1c(C(=O)N(C)CCN(C)C)[nH]c3ccc(OC)cc13)O2` [Compound 602, N-[2-(dimethylamino)ethyl]-5-methoxy-N-methyl-3-[(Z)-{5-[(methylcarbamoyl)amino]-3-oxo-1-benzofuran-2(3H)-ylidene}methyl]-1H-indole-2-carboxamide], the concentration for half-maximal inhibition (IC50) in assay [1] (read-out: PI3Kα Avg. IC50) was 40.5 nM; in assay [3] (PI3Kγ Avg. IC50) it was 316 nM.

Turning to `COc1ccc2c(c1)c(/C=C1\Oc3ccc(NC(=O)NCCCCN)cc3C1=O)cn2CCN1CCN(C)CC1` [Compound 565, 1-(4-aminobutyl)-3-[(2Z)-2-({5-methoxy-1-[2-(4-methylpiperazin-1-yl)ethyl]-1Hindol-3-yl}methylene)-3-oxo-2,3-dihydro-1-benzofuran-5-yl]urea], the half-maximal inhibitory concentration (IC50) in assay [1] (read-out: PI3Kα Avg. IC50) is 114 nM; in assay [3] (PI3Kγ Avg. IC50) it was more than 10000 nM.

Take `COc1ccc2c(c1)c(/C=C1\Oc3ccc(O)cc3C1=O)cn2CCCN(C)C` [Compound 515, (2Z)-2-({1-[3-(dimethylamino)propyl]-5-methoxy-1H-indol-3-yl}methylene)-5-hydroxy-1-benzofuran-3(2H)-one]: the half-inhibitory concentration (IC50) was 1170 nM in assay [1] (read-out: PI3Kα Avg. IC50) and 2510 nM in assay [3] (PI3Kγ Avg. IC50).

As to “4-hydroxy-2-({5-methoxy-2-methyl-1-[2-(4-methylpiperazin-1-yl)ethyl]-1H-indol-3-yl}methylene)-1-benzofuran-3(2H)-one [Example 129]”, the results for the IC50 in assay [1] (read-out: PI3Kα Avg. IC50) and in assay [3] (read-out: PI3Kγ Avg. IC50) were 488 nM and 4500 nM, respectively.

Turning to `CNC(=O)Nc1ccc2c(c1)C(=O)/C(=C/c1cn(CCCN(C)C)c3ccc(OC)cc13)O2` [Compound 520, 1-[(2Z)-2-({1-[3-(dimethylamino)propyl]-5-methoxy-1H-indol-3-yl}methylene)-3-oxo-2,3-dihydro-1-benzofuran-5-yl]-3-methylurea], the figures for the 50% inhibitory concentration (IC50) in assay [1] (read-out: PI3Kα Avg. IC50) and in assay [3] (PI3Kγ Avg. IC50) were 72.5 nM and 4020 nM, respectively.

With `CNC(=O)Nc1ccc2c(c1)C(=O)/C(=C/c1c[nH]c3c(CN4CCOCC4)cc(OC)cc13)O2` [Compound 570, 1-[(2Z)-2-{[5-methoxy-7-(morpholin-4-ylmethyl)-1H-indol-3-yl]methylene}-3-oxo-2,3-dihydro-1-benzofuran-5-yl]-3-methylurea], the figures for the IC50 in assay [1] (read-out: PI3Kα Avg. IC50) and in assay [3] (PI3Kγ Avg. IC50) were 8410 nM and 6490 nM, respectively.

Take `COc1ccc2[nH]cc(/C=C3\Oc4cc(-c5nn[nH]n5)ccc4C3=O)c2c1` [Compound 509, (2Z)-2-[(5-methoxy-1H-indol-3-yl)methylene]-6-(2H-tetrazol-5-yl)-1-benzofuran-3(2H)-one]: the IC50 in assay [1] (read-out: PI3Kα Avg. IC50) turned out to be 484 nM; in assay [3] (PI3Kγ Avg. IC50) it was 2470 nM.

On to `O=C1/C(=C/c2c(-c3ccc(F)cc3)[nH]c3ccccc23)Oc2c(O)cccc21` [Example 68, (2Z)-2-{[2-(4-fluorophenyl)-1H-indol-3-yl]methylene}-7-hydroxy-1-benzofuran-3(2H)-one], for which the concentration for half-maximal inhibition (IC50) was 481 nM in assay [1] (PI3Kα Avg. IC50) and 486 nM in assay [3] (PI3Kγ Avg. IC50).

`COc1ccc2[nH]cc(/C=C3\Oc4ccc(Br)cc4C3=O)c2c1` [Compound 522, (2Z)-5-bromo-2-[(5-methoxy-1H-indol-3-yl)methylene]-1-benzofuran-3(2H)-one]: the concentration for half-maximal inhibition (IC50) in assay [1] (read-out: PI3Kα Avg. IC50) and in assay [3] (PI3Kγ Avg. IC50) was more than 10000 nM in each case.

The term IC50 denotes the concentration needed to halve the response being measured.
